This note sets out measurements from patent US9101640B2, “Use of Danshensu, Notoginsenoside R1 or their combination in preparation of medicaments for preventing and treating diseases caused by microcirculation disorder” (Tasly Pharmaceutical Group Co., Ltd., priority 2009, dated 2015).

The structures appear in SMILES notation. Entries after “also recorded” stand apart in the source; their conditions may differ.

In one assay the test system is mesenteric venules. Kind of assay: Diameters of mesenteric venules after I/R. Format: in vivo. As to conditions: rat mesenteric I/R. The method, then: The rats were anesthetized by intraperitoneal injection of pentobarbital sodium (30 mg/kg body weight (BW)). PE venous cannulas (#3) were cannulated into the right jugular of the rats and detained. The abdomen of each rat was incised in a length of 20-30 mm along the midline. The ileum near the ileocecal junctions was gently taken out and unfolded onto the object stage mounted with glass slides. The unfolded mesenteries were continuously dripped with Krebs-Ringer buffering solution at 37° C. The microcirculatory dynamics of the mesenteries was observed under white light (12V, 100 W) using an inverted biomicroscope (Diaphot TMD-2S, Nikon, Tokyo) placed in the thermostat at 37° C. Observation sites were selected under 20× object lens, and a video recording system with a time-displaying function was used to record what had been observed on S-VHS tape and preserved. […] Normal saline was administrated at 20 min before ischemia until the end of the observation by continuously intravenous drip via jugular at a dosage of 5 mg/kg/h. PE cannulas were used to ligate non-circulatory mesenteric arteries and veins, so as to observe the arteries and veins for 10 min, and then the ligation was lifted. Time was adjusted to zero and the microcirculatory dynamics under the same visual field was continuously observed for 60 min. DLA was administrated at 20 min before ischemia until the end of the observation by continuously intravenous drip via jugular at a dosage of 5 mg/kg/h. R1 was administrated at 20 min before ischemia until the end of the observation by continuously intravenous drip via jugular at a dosage of 5 mg/kg/h. The combination of DLA and R1 in a weight ratio of 4:1 was administrated at 20 min before ischemia until the end of the observation by continuously intravenous drip via jugular at a dosage of 5 mg/kg/h. The combination of DLA and R1 in a weight ratio of 1:1 was administrated at 20 min before ischemia until the end of the observation by continuously intravenous drip via jugular at a dosage of 5 mg/kg/h. […] Wherein, 6 rats in each group were taken out, these rats were used for observing the following aspects: the venular diameters; leukocytes rolling, adhesion, and emigration and DHR fluorescence intensities of the venular walls. […] Microcirculatory dynamics was continuously recorded using an inverted biomicroscope […] recording system (CC-090, Flovel, Tokyo) and SIT fluorescent camera (C-2400-08, Hamamatsu Photonics, Hamamatsu). 3 sites of the mesenteric venules were measured using Image-Pro Plus 5.0 software from the replayed CD records at the following time points: before ischemia and 1 min, 10 min, 20 min, 30 min, 40 min, 50 min and 60 min after the beginning of the reperfusion. The average diameters were calculated.

Assay [1] deals with peroxides in the mesenteric venular walls. The assay can be described thus: DHR fluorescence intensities of venular walls (production of peroxides) after I/R. Format: in vivo. As to conditions: rat mesenteric I/R. The method, then:
The rats were anesthetized by intraperitoneal injection of pentobarbital sodium (30 mg/kg body weight (BW)). PE venous cannulas (#3) were cannulated into the right jugular of the rats and detained. The abdomen of each rat was incised in a length of 20-30 mm along the midline. The ileum near the ileocecal junctions was gently taken out and unfolded onto the object stage mounted with glass slides. The unfolded mesenteries were continuously dripped with Krebs-Ringer buffering solution at 37° C. The microcirculatory dynamics of the mesenteries was observed under white light (12V, 100 W) using an inverted biomicroscope (Diaphot TMD-2S, Nikon, Tokyo) placed in the thermostat at 37° C. Observation sites were selected under 20× object lens, and a video recording system with a time-displaying function was used to record what had been observed on S-VHS tape and preserved. […] PE cannulas were used to ligate non-circulatory mesenteric arteries and veins, so as to observe the arteries and veins for 10 min, and then the ligation was lifted. Time was adjusted to zero and the microcirculatory dynamics under the same visual field was continuously observed for 60 min. […]
DLA was administrated at 10 min after I/R until the end of the observation by continuously intravenous drip via jugular at a dosage of 5 mg/kg/h. […]
Wherein, 6 rats in each group were taken out, these rats were used for observing the following aspects: the venular diameters; leukocytes rolling, adhesion, and emigration and DHR fluorescence intensities of the venular walls. […]
Microcirculatory dynamics was continuously recorded using an inverted biomicroscope […] recording system (CC-090, Flovel, Tokyo) and SIT fluorescent camera (C-2400-08, Hamamatsu Photonics, Hamamatsu).
The H2O2-sensitive fluorescent probes DHR ([…]) were continuously dripped onto the surfaces of the rat's mesenteries to be observed. An inverted fluorescence microscope (DM-IRB, Leica, Germany) with an excitation wavelength at 455 nm and a mercury lamp as an excitation source (100 W) was used. The images were recorded with a CD camera at the following time points: before ischemia, and 1 min, 10 min, 20 min, 30 min, 40 min, 50 min and 60 min after the beginning of the reperfusion. The fluorescence intensities of the venular wall and the extravascular interstitial substance were measured with a Image-Pro Plus 5.0 software. The […] value between the fluorescence intensity of the venular wall and that of the extravascular interstitial substance before ischemia was taken as a baseline. The ratio of the changing value at each time point to the baseline were calculated, which was used to indicate the changing rate of the DHR fluorescence intensities of the rat's mesenteric venular walls.

Where [2] appears, read: post-administration, 5 mg/kg/h continuous i.v. drip from 20 min after ischemia (DLA: 10 min after I/R).
The mark [3] stands for this setting: pre-administration, 5 mg/kg/h continuous i.v. drip from 20 min before ischemia.

Turning to `CC(C)=CCC[C@](C)(O[C@@H]1O[C@H](CO)[C@@H](O)[C@H](O)[C@H]1O)[C@H]1CC[C@]2(C)[C@@H]1[C@H](O)C[C@@H]1[C@@]3(C)CC[C@H](O)C(C)(C)[C@@H]3[C@@H](O[C@@H]3O[C@H](CO)[C@@H](O)[C@H](O)[C@H]3O[C@@H]3OC[C@@H](O)[C@H](O)[C@H]3O)C[C@]12C` [R1, Notoginsenoside R1], the “effect on the diameters of the mesenteric venules after reperfusion” value in the assay with mesenteric venules (post-administration, 5 mg/kg/h continuous i.v. drip from 20 min after ischemia (DLA: 10 min after I/R), 5 mg/kg) was “did not cause the significant changes; also recorded: have no significant inhibitory effects”; in the assay on mesenteric venules (pre-administration, 5 mg/kg/h continuous i.v. drip from 20 min before ischemia, 60 min reperfusion, 5 mg/kg), “did not cause the significant changes; also recorded: have no significant inhibitory effects”. The “inhibition of the production of peroxides in the mesenteric venular walls after I/R (DHR fluorescence)” value in assay [1] (setting [2]) and in assay [1] (setting [3]) was “had no significant inhibitory effects; also recorded: has no inhibitory effects” in each case.

As to `O=C(O)C(O)Cc1ccc(O)c(O)c1` (centres unmarked) [DLA, 3,4-dihydroxyphenyl lactic acid], the “effect on the diameters of the mesenteric venules after reperfusion” value in the assay with mesenteric venules (setting [2]) was “did not cause the significant changes”; with mesenteric venules (pre-administration, 5 mg/kg/h continuous i.v. drip from 20 min before ischemia, 60 min reperfusion) it was “did not cause the significant changes”. In addition, the “inhibition of the production of peroxides in the mesenteric venular walls after I/R (DHR fluorescence)” value in assay [1] (setting [2]) is reported as “had significant inhibitory effects; also recorded: has the same effects as those of the pre-administration”; in assay [1] (setting [3]), “had significant inhibitory effects; also recorded: can inhibit”.
